According to US9790169B2, “IDO inhibitors” (BRISTOL-MYERS SQUIBB COMPANY, priority 2015, dated 2017):

Molecular target: human IDO1 (Homo sapiens, UniProt P14902)
Assay: Assessment of human IDO-1 inhibitory activity in Hela cells (Interferon-gamma stimulated HeLa cells, Ehrlich reagent, absorbance 490 nm)
Assay type: cell-based
Set-up: endogenous in cells; host or cells: HeLa cells stimulated with interferon-gamma
Details: Hela Human IDO-1 cellular assay
In short: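 IDO activity induced by 18 h IFN-γ (human 10 ng/ml or murine 5 ng/ml, final) after 1 h compound pre-treatment of HeLa cells at 37 °C. Supernatant kynurenine detected via Ehrlich reagent absorbance at 490 nm following 3% TCA at 50 °C; IC50 set against no-IFN-γ and untreated-stimulated controls.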

human IDO1, sequence (P14902 whole entry): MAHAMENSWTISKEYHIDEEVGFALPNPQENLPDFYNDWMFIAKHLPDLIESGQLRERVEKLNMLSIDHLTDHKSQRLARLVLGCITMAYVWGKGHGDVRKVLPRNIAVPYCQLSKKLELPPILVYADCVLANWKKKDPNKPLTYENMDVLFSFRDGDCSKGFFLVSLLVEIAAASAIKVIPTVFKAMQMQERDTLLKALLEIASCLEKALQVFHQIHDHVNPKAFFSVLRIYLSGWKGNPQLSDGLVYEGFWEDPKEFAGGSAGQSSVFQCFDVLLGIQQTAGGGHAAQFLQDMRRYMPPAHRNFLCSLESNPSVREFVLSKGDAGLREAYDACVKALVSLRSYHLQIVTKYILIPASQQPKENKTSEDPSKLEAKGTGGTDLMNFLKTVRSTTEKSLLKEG

IC50	Compound
< 50 nM	COCCN(c1ccc(C(COC)CC(=O)O)cc1Nc1ccc(C#N)cc1)C1CCOCC1 (single isomer, unassigned) [Example 257, 3-(3-((4-cyanophenyl)amino)-4-((2-methoxyethyl)(tetrahydro-2H-pyran-4-yl)amino)phenyl)-4-methoxybutanoic acid]
< 50 nM	CCCN(c1ccc(C(C)(C)CC(=O)O)cc1Nc1cnc(OCC)nc1)C1CCOCC1 [Example 24, 3-(3-((2-ethoxypyrimidin-5-yl)amino)-4-(propyl(tetrahydro-2H-pyran-4-yl)amino)phenyl)-3-methylbutanoic acid]
< 50 nM	CCN(c1ccc([C@@H](COC)CC(=O)O)cc1Nc1ncc(Cl)cn1)C1CCOCC1 (single isomer, unassigned) [Example 357]
< 5 nM	CCCN(c1ccc(C(COC)CC(=O)O)cc1Nc1ccc(Cl)cc1)C1CCS(=O)(=O)CC1 (single isomer, unassigned) [Example 185, 3-(3-((4-chlorophenyl)amino)-4-((1,1-dioxidotetrahydro-2H-thiopyran-4-yl)(propyl)amino)phenyl)-4-methoxybutanoic acid]
> 50 nM	CCN(c1ccc([C@@H](CC(=O)O)C(F)(F)F)cc1NC(=O)Nc1ccc(C#N)cc1)C1CCOCC1 (single isomer, unassigned) [Example 1271]
< 50 nM	CCCN(c1ccc([C@H](COC)CC(=O)O)cc1Nc1ccc(F)cc1)C1CCOCC1 (single isomer, unassigned) [Example 572]
< 5 nM	CCC(CC(=O)O)c1cc(Nc2ccc(Cl)cc2)c(N(CC)C2CCOCC2)cc1F (single isomer, unassigned) [Example 856, 3-(5-((4-Chlorophenyl)amino)-4-(ethyl(tetrahydro-2H-pyran-4-yl)amino)-2-fluorophenyl)pentanoic acid]
< 5 nM	CCOc1cnc(Nc2cc([C@H](CC)CC(=O)O)ccc2N(CC)C2CCOCC2)cn1 (single isomer, unassigned) [Example 508]
< 50 nM	CCCN(c1ccc([C@H](COC)CC(=O)O)cc1Nc1ccc2nc(C)sc2c1)C1CCOCC1 (single isomer, unassigned) [Example 570]
> 50 nM	CCC1COCCN1c1ccc([C@@H](COC)CC(=O)O)cc1Nc1cnc(OC)nc1 (single isomer, unassigned) [Example 1284]
< 50 nM	CCOc1ncc(Nc2cc(C(CC(=O)O)C3CC3)ccc2N(CC)C2CCOCC2)cn1 (single isomer, unassigned) [Example 36, 3-cyclopropyl-3-(3-((2-ethoxypyrimidin-5-yl)amino)-4-(ethyl(tetrahydro-2H-pyran-4-yl)amino)phenyl)propanoic acid]
< 5 nM	CCCN(c1ccc([C@H](COC)CC(=O)O)cc1Nc1ccc(C#N)cc1)C1CCOCC1 (single isomer, unassigned) [Example 568]
< 50 nM	CCOc1cc(Nc2cc([C@@H](COC)CC(=O)O)ccc2N(CC)C2CCOCC2)ccc1C#N (single isomer, unassigned) [Example 370]
< 5 nM	CCN(c1cc(F)c(C(COC)CC(=O)O)cc1Nc1ccc(C#N)cc1F)C1CCOCC1 (single isomer, unassigned) [Example 847, 3-(5-((4-cyano-2-fluorophenyl)amino)-4-(ethyl (tetrahydro-2H-pyran-4-yl)amino)-2-fluorophenyl)-4-methoxybutanoic acid]
> 50 nM	CCN(c1cc(F)c([C@@H](COC)CC(=O)O)cc1NC(=O)Nc1ccc(C#N)cc1)C1CCOCC1 (single isomer, unassigned) [Example 849, 3-(5-(3-(4-Cyanophenyl)ureido)-4-(ethyl(tetrahydro-2H-pyran-4-yl)amino)-2-fluorophenyl)-4-methoxybutanoic acid]
< 5 nM	CCC(CC(=O)O)c1ccc(N(CC)C2CCS(=O)(=O)CC2)c(Nc2ccc(Cl)cc2)c1 (single isomer, unassigned) [Example 334 Enantiomer 1, 3-(3-((4-Chlorophenyl)amino)-4-((1,1-dioxidotetrahydro-2H-thiopyran-4-yl)(ethyl)amino)phenyl)pentanoic acid]
< 50 nM	COCCN(c1ccc(C(C)(C)CC(=O)O)cc1NC(=O)Nc1ccc(Cl)cc1F)C1CCOCC1 [Example 20, 3-(3-(3-(4-chloro-2-fluorophenyl)ureido)-4-((2-methoxyethyl)(tetrahydro-2H-pyran-4-yl)amino)phenyl)-3-methylbutanoic acid]
< 50 nM	CCC(CC(=O)O)c1ccc(N(C)C2CCOCC2)c(Nc2cnc(OC)nc2)c1 (single isomer, unassigned) [Example 868, 3-(3-((2-methoxy-pyrimidin-5-yl)amino)-4-(methyl (tetrahydro-2H-pyran-4-yl)amino)phenyl) pentanoic acid]

IC50	Compound
< 50 nM	CCN(c1ccc(C(C)CC(=O)O)cc1Nc1cnc(OCC2CC2)nc1)C1CCOCC1 (single isomer, unassigned) [Example 626, 3-(3-((2-(cyclopropylmethoxy)pyrimidin-5-yl)amino)-4-(ethyl(tetrahydro-2H-pyran-4-yl)amino)phenyl)butanoic acid]
> 50 nM	CCOc1ncc(Nc2cc(C(CC)CC(=O)O)ccc2N2CCC(C)CC2)cn1 (single isomer, unassigned) [Example 43, 3-(3-((2-ethoxypyrimidin-5-yl)amino)-4-(4-methylpiperidin-1-yl)phenyl)pentanoic acid]
< 50 nM	CCC(CC(=O)O)c1cc(F)c(N(CC)C2CCOCC2)c(Nc2ccc(OC)nc2)c1 (single isomer, unassigned) [Example 137, 3-(4-(ethyl(tetrahydro-2H-pyran-4-yl)amino)-3-fluoro-5-((6-methoxypyridin-3-yl)amino)phenyl) pentanoic acid]
< 5 nM	CCc1ncc(Nc2cc([C@@H](CC)CC(=O)O)ccc2N(CC)C2CCOCC2)cn1 (single isomer, unassigned) [Example 1362]
< 50 nM	CCOc1ncc(Nc2cc(C(CC)CC(=O)O)ccc2N2CCC(c3ccccc3)CC2)cn1 (single isomer, unassigned) [Example 47 Enantiomer 2, 3-(3-((2-Ethoxypyrimidin-5-yl)amino)-4-(4-phenylpiperidin-1-yl)phenyl)pentanoic acid]
< 5 nM	CCC(CC(=O)O)c1cc(Nc2cnc(OCC3CC3)nc2)c(N(CC)C2CCOCC2)cc1F (single isomer, unassigned) [Example 858, 3-(5-((2-(cyclopropyl-methoxy)pyrimidin-5-yl)amino)-4-(ethyl(tetra-hydro-2H-pyran-4-yl)amino)-2-fluorophenyl) pentanoic acid]
> 50 nM	CCOc1ncc(Nc2cc(C(COC)CC(=O)O)ccc2N2CCOC[C@H]2C(C)C)cn1 (single isomer, unassigned) [Example 914]
> 50 nM	COCC(CC(=O)O)c1ccc(N2CCC(c3ccccc3)CC2)c(NC(=O)Nc2ccc(Cl)cc2F)c1 (single isomer, unassigned) [Example 1357 E1, 3-(3-(3-(4-Chloro-2-fluorophenyl)ureido)-4-(4-phenylpiperidin-1-yl)phenyl)-4-methoxybutanoic acid]
< 50 nM	CCC(CC(=O)O)c1ccc(N2CC(O)(c3ccc(F)cc3)C2)c(Nc2ccc(Cl)cc2)c1 (single isomer, unassigned) [Example 1253 E1, 3-(3-((4-Chlorophenyl)amino)-4-(3-(4-fluorophenyl)-3-hydroxyazetidin-1-yl)phenyl)pentanoic acid]
> 50 nM	COCCN(c1ccc(C(COC)CC(=O)O)cc1NC(=O)Nc1ccc(Cl)cc1F)C1CCOCC1 (single isomer, unassigned) [Example 262, 3-(3-(3-(4-chloro-2-fluorophenyl)ureido)-4-((2-methoxyethyl)(tetrahydro-2H-pyran-4-yl)amino)phenyl)-4-methoxybutanoic acid]
> 50 nM	CCN(c1ccc([C@@H](COC)CC(=O)O)cc1Nc1ncc(F)cn1)C1CCOCC1 (single isomer, unassigned) [Example 359]
> 50 nM	C[C@@H]1CN(c2ccc(C(CC(=O)O)C3CC3)cc2Nc2ccc(C#N)cc2)C[C@H](C)O1 (single isomer, unassigned) [Example 247]
< 5 nM	CCOc1ncc(Nc2cc(C(CC)CC(=O)O)ccc2N2CCC(c3ccccc3)CC2)cn1 (single isomer, unassigned) [Example 47 Enantiomer 1, 3-(3-((2-Ethoxypyrimidin-5-yl)amino)-4-(4-phenylpiperidin-1-yl)phenyl)pentanoic acid]
< 50 nM	CCOc1cnc(Nc2cc(C(C)CC(=O)O)ccc2N(CC)C2CCOCC2)cn1 (single isomer, unassigned) [Example 630, 3-(3-((5-ethoxypyrazin-2-yl)amino)-4-(ethyl (tetrahydro-2H-pyran-4-yl)amino)phenyl)butanoic acid]
< 50 nM	CCN(c1ccc([C@@H](COC)CC(=O)O)cc1Nc1ncc(F)cc1F)C1CCOCC1 (single isomer, unassigned) [Example 358]
< 5 nM	CCN(c1cc(F)c([C@H](COC)CC(=O)O)cc1Nc1ccc(C#N)cc1)C1CCOCC1 (single isomer, unassigned) [Example 850, 3-(5-((4-Cyanophenyl)amino)-4-(ethyl(tetrahydro-2H-pyran-4-yl)amino)-2-fluorophenyl)-4-methoxybutanoic acid]
> 50 nM	COCC(CC(=O)O)c1ccc(N2C[C@@H](C)O[C@@H](C)C2)c(Nc2ccc(Cl)cc2)c1 (single isomer, unassigned) [Example 603]
< 50 nM	CCCN(c1ccc([C@@H](COC)CC(=O)O)cc1Nc1ccc(OC)nc1)C1CCOCC1 (single isomer, unassigned) [Example 565]

Compound	IC50
CCOc1ncc(Nc2cc([C@@H](CC)CC(=O)O)ccc2N2C3CCC2CC(c2ccc(F)cc2)C3)cn1 (stereo partly drawn) [Example 1360, (S)-3-(3-((2-Ethoxypyrimidin-5-yl)amino)-4-(3-(4-fluorophenyl)-8-azabicyclo[3.2.1]octan-8-yl)phenyl)pentanoic acid]	< 5 nM
